# Laboratory results taken from patent US11957680B2, “Pyruvate kinase activators for use in treating blood disorders” (Agios Pharmaceuticals, Inc., priority 2017, dated 2024).
# Key:
# wild type PKR [1] = biological target: T1, wild type PKR (Homo sapiens, UniProt P30613); assay: PKR (wild type) enzyme AC50 assay, LDH/NADH-coupled, absorbance at 340 nm; type: biochemical; details: for AC50: read-out: PKR WT AC50; for EC50: Table 4, AC50, enzyme assay, read-out: PKR WT
# In short: (§1)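 LDH/NADH-coupled read-out at 340 nm after ADP (0.2-1.65 mM) addition at room temperature. Beforehand, wild-type, K410E or R510Q human PKR (40-400 ng/well) sat 60 min with compound (top 100 μM, 3-fold, 11 points) plus PEP 0.1-0.5 mM, 180 μM NADH in 50 mM Tris pH 7.5, 100 mM KCl, 5 mM MgCl2, 1 mM DTT, 0.03% BSA.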
# PKR K410E = PKR K410E (Homo sapiens, UniProt P30613, K410E); assay: PKR mutant assay (K410E), AC50, LDH/NADH-coupled, absorbance at 340 nm; type: biochemical; details: for AC50: Table 2, enzyme assay
# Sequence of PKR K410E (P30613 whole entry K410E): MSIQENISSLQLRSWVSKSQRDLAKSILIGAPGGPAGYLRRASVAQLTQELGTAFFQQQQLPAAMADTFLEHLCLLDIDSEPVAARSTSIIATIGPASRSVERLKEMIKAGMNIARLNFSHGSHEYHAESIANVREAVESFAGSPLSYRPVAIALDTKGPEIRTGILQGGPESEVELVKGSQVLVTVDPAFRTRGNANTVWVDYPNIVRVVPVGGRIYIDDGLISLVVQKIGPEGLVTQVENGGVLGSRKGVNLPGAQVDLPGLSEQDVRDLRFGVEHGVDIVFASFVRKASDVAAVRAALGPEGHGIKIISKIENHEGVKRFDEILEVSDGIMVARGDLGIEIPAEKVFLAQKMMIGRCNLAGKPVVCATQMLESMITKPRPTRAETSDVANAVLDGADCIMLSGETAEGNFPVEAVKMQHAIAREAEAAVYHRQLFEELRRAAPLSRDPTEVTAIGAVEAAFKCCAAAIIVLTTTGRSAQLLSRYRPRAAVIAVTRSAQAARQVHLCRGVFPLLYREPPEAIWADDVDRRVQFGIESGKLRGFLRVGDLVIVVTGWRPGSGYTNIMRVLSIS
# In short: as §1
# PKR R510Q = PKR R510Q (Homo sapiens, UniProt P30613, R510Q); assay: PKR mutant assay (R510Q), AC50, LDH/NADH-coupled, absorbance at 340 nm; type: biochemical; details: for AC50 / PK R510Q AC50: Table 2, enzyme assay; for AC50: read-out: PK R510Q AC50; for EC50: read-out: PK R510Q
# Sequence of PKR R510Q (P30613 whole entry R510Q): as the sequence (P30613 whole entry K410E) above, with E410K, R510Q counted along it
# In short: as §1
# wild type PKR [2] = biological target: T1, wild type PKR; assay: Cell based ATP assay in purified red blood cells (Cell-Titer-Glo); set-up: endogenous in cells; host or cells: purified red blood cells from healthy volunteers; details: overnight at 37° C., ATP levels; for AC50 / Cell based ATP assay AC50: Table 2, RBCs; for EC50 / Cell based ATP assay: Table 4, AC50, RBCs
# In short: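 ATP levels were quantified by Cell-Titer-Glo after overnight 37 °C exposure of cells to compound (1:4 dilution series, 0.1% DMSO final). The cells were human erythrocytes, filter-purified to remove leukocytes and plated at 1×10^7 cells/mL in AGAM medium.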
# T1 sequence (P30613 whole entry): as the sequence (P30613 whole entry K410E) above, with E410K counted along it
SMILES,"AC50 (wild type PKR [1]; Table 2, enzyme assay) [nM]",AC50 (PKR K410E) [nM],AC50 (PKR R510Q) [nM],AC50 (wild type PKR [2]) [nM],EC50 (wild type PKR [1]) [nM],"EC50 (PKR K410E; Table 4, AC50, enzyme assay) [nM]","EC50 (PKR R510Q; Table 4, AC50, enzyme assay) [nM]",EC50 (wild type PKR [2]) [nM],also measured
COc1cccc(Cn2ncc3c4sc(C(C)=O)nc4n(C)c3c2=O)c1 [Compound 62],< 300,< 300,< 300,≤ 1000,–,–,–,–,–
Cn1c2nc(Cc3ncsc3Br)sc2c2cnn(Cc3cccc4[nH]ncc34)c(=O)c21 [Compound 220],–,–,–,–,< 300,< 300,< 300,≤ 1000,–
Cn1c2nc(Cc3ccc(O)cc3)sc2c2cnn(Cc3cccc4[nH]ncc34)c(=O)c21 [Compound 77],< 300,< 300,< 300,≤ 1000,–,–,–,–,–
Cn1c2nc(Cc3n[nH]cc3F)sc2c2cnn(Cc3ccccc3)c(=O)c21 [Compound 382],–,–,–,–,< 300,< 300,< 300,≤ 1000,–
Cc1nc2c(s1)c1cnn(Cc3cccc(CN)c3)c(=O)c1n2C [Compound 58],< 300,< 300,< 300,> 1000,–,–,–,–,–
COc1cccc(Cn2ncc3c4sc(C(C)(C)O)nc4n(C)c3c2=O)c1 [Compound 63],< 300,< 300,< 300,> 1000,–,–,–,–,–
CCc1nc2c(s1)c1cnn(Cc3cccc(OC)c3)c(=O)c1n2C [Compound 39],< 300,< 300,< 300,> 1000,–,–,–,–,–
Cn1c2nc([C@@H](O)c3cc[nH]n3)sc2c2cnn(Cc3cccc4[nH]ncc34)c(=O)c21 [Compound 304],–,–,–,–,< 300,< 300,< 300,≤ 1000,–
Cn1c2nc(Cc3cnc(N)s3)sc2c2cnn(Cc3cccc4[nH]ncc34)c(=O)c21 [Compound 229],–,–,–,–,301 to 800,301 to 800,301 to 800,> 1000,–
Cn1c2nc([S+](C)[O-])sc2c2cnn(Cc3cccc4[nH]ncc34)c(=O)c21 (stereo not shown) [Compound 71],301 to 800,301 to 800,301 to 800,≤ 1000,–,–,–,–,–
Cn1c2nc(C(O)c3ccccc3)sc2c2cnn(Cc3cccc4[nH]ncc34)c(=O)c21 (stereo not shown) [Compound 117],< 300,< 300,301 to 800,> 1000,–,–,–,–,–
Cn1ncc2c(Cn3ncc4c5sc(Cc6cc[nH]n6)nc5n(C)c4c3=O)cccc21 [Compound 201],–,–,–,–,< 300,< 300,< 300,≤ 1000,–
Cn1cc(Cc2nc3c(s2)c2cnn(Cc4cccc5[nH]ncc45)c(=O)c2n3C)cn1 [Compound 186],–,–,–,–,> 800,> 800,301 to 800,≤ 1000,–
Cc1nc2c(s1)c1cnn(Cc3cccc(O)c3)c(=O)c1n2C [Compound 7],< 300,< 300,< 300,≤ 1000,–,–,–,–,–
COc1cccc(Cn2ncc3c4sc(SC)nc4n(C)c3c2=O)c1 [Compound 23],< 300,< 300,< 300,> 1000,–,–,–,–,–
Cc1nc2c(s1)c1cnn(Cc3cccc4[nH]ncc34)c(=O)c1n2C [Compound 26],< 300,> 800,< 300,≤ 1000,–,–,–,–,–
Cn1c2nc(Cc3cc[nH]n3)sc2c2cnn(Cc3ccc4ccccc4c3)c(=O)c21 [Compound 210],–,–,–,–,< 300,< 300,< 300,≤ 1000,–
CC(=O)NC(c1cc[nH]n1)c1nc2c(s1)c1cnn(Cc3cccc4[nH]ncc34)c(=O)c1n2C (stereo not shown) [Compound 178],> 800,> 800,> 800,> 1000,–,–,–,–,–
CSc1nc2c(s1)c1cnn(Cc3ccccc3)c(=O)c1n2-c1nccs1 [Compound 409],–,–,–,–,> 800,–,–,–,"PKR K410E (PKR K410E; Table 4, AC50, enzyme assay): No Fit; PK R510Q (PKR R510Q; Table 4, AC50, enzyme assay): No Fit; Cell based ATP assay (wild type PKR [2]): No Fit"
Cn1c2nc(Cc3cccc4cn[nH]c34)sc2c2cnn(Cc3cccc4[nH]ncc34)c(=O)c21 [Compound 181],< 300,< 300,< 300,≤ 1000,–,–,–,–,–
Cn1c2nc(Nc3ccccc3)sc2c2cnn(Cc3cccc4[nH]ncc34)c(=O)c21 [Compound 135],> 800,> 800,–,–,–,–,–,–,PK R510Q AC50 (PKR R510Q): No Fit; Cell based ATP assay AC50 (wild type PKR [2]): No Fit
Cc1nc2c(s1)c1cnn(Cc3ccc([N+](=O)[O-])cc3)c(=O)c1n2C [Compound 48],–,> 800,> 800,–,–,–,–,–,"PKR WT AC50 (wild type PKR [1]; Table 2, enzyme assay): No Fit; Cell based ATP assay AC50 (wild type PKR [2]): No Fit"
Cc1nc2c(s1)c1cnn(Cc3ccccc3F)c(=O)c1n2C [Compound 3],< 300,< 300,< 300,≤ 1000,–,–,–,–,–

SMILES,"AC50 (wild type PKR [1]; Table 2, enzyme assay) [nM]",AC50 (PKR K410E) [nM],AC50 (PKR R510Q) [nM],AC50 (wild type PKR [2]) [nM],EC50 (wild type PKR [1]) [nM],"EC50 (PKR K410E; Table 4, AC50, enzyme assay) [nM]","EC50 (PKR R510Q; Table 4, AC50, enzyme assay) [nM]",EC50 (wild type PKR [2]) [nM],also measured
Cn1c2nc(C(C(N)=O)c3cc[nH]n3)sc2c2cnn(Cc3cccc4[nH]ncc34)c(=O)c21 (stereo not shown) [Compound 212],–,–,–,–,< 300,< 300,< 300,≤ 1000,–
Cn1c2nc(Cc3cscn3)sc2c2cnn(Cc3ccccc3)c(=O)c21 [Compound 270],–,–,–,–,< 300,< 300,< 300,≤ 1000,–
Cc1nc2c(s1)c1cnn(Cc3ccc4cc[nH]c4c3)c(=O)c1n2C [Compound 60],< 300,< 300,< 300,≤ 1000,–,–,–,–,–
Cc1nc2c(s1)c1cnn(Cc3cccc([N+](=O)[O-])c3)c(=O)c1n2C [Compound 47],> 800,> 800,> 800,–,–,–,–,–,Cell based ATP assay AC50 (wild type PKR [2]): No Fit
Cn1c2nc(Cc3cc(Cl)[nH]n3)sc2c2cnn(Cc3cccc4[nH]ncc34)c(=O)c21 [Compound 233],–,–,–,–,< 300,< 300,< 300,≤ 1000,–
Cn1c2nc(Cc3csc(C(N)=O)n3)sc2c2cnn(Cc3cccc4[nH]ncc34)c(=O)c21 [Compound 206],–,–,–,–,> 800,> 800,> 800,> 1000,–
Cn1ccc(Cn2ncc3c4sc(CCc5cccnc5)nc4n(C)c3c2=O)n1 [Compound 406],–,–,–,–,> 800,> 800,> 800,–,Cell based ATP assay (wild type PKR [2]): No Fit
Cc1nc2c(s1)c1cnn(Cc3cccc(C(C)N)c3)c(=O)c1n2C (stereo not shown) [Compound 57],< 300,< 300,< 300,≤ 1000,–,–,–,–,–
CSc1nc2c(s1)c1cnn(Cc3ccnc(=O)[nH]3)c(=O)c1n2C [Compound 96],> 800,> 800,–,–,–,–,–,–,PK R510Q AC50 (PKR R510Q): No Fit; Cell based ATP assay AC50 (wild type PKR [2]): No Fit
Cn1c2nc(C#N)sc2c2cnn(Cc3csc(N)n3)c(=O)c21 [Compound 145],301 to 800,301 to 800,> 800,> 1000,–,–,–,–,–
COc1cccc(Cn2ncc3c4sc(C=O)nc4n(C)c3c2=O)c1 [Compound 38],< 300,< 300,< 300,> 1000,–,–,–,–,–
COc1cccc(Cn2ncc3c4sc(CO)nc4n(C)c3c2=O)c1 [Compound 51],< 300,< 300,< 300,≤ 1000,–,–,–,–,–
Cn1c2nc(Cc3cc[nH]n3)sc2c2cnn(CCc3cccc(N)n3)c(=O)c21 [Compound 385],–,–,–,–,< 300,< 300,< 300,≤ 1000,–
Cn1c2nc(Cc3c[nH]nn3)sc2c2cnn(Cc3ccccc3)c(=O)c21 [Compound 273],–,–,–,–,> 800,> 800,> 800,> 1000,–
Cn1c2nc(Cc3nc[nH]n3)sc2c2cnn(Cc3cccc4[nH]ncc34)c(=O)c21 [Compound 230],–,–,–,–,< 300,< 300,< 300,≤ 1000,–
Cn1c2nc(Cc3ccc(Cl)nc3)sc2c2cnn(Cc3cccc4[nH]ncc34)c(=O)c21 [Compound 150],> 800,> 800,> 800,> 1000,–,–,–,–,–
Cn1c2nc(C#N)sc2c2cnn(Cc3cccc4[nH]ncc34)c(=O)c21 [Compound 84],< 300,301 to 800,301 to 800,> 1000,–,–,–,–,–
C=Cc1nc2c(s1)c1cnn(Cc3cccc4[nH]ncc34)c(=O)c1n2C [Compound 104],< 300,> 800,< 300,> 1000,–,–,–,–,–
Cc1nc2c(s1)c1cnn(Cc3cccc(NC(N)=O)c3)c(=O)c1n2C [Compound 15],> 800,> 800,< 300,> 1000,–,–,–,–,–
CC(c1cc[nH]n1)c1nc2c(s1)c1cnn(Cc3cccc4[nH]ncc34)c(=O)c1n2C (stereo not shown) [Compound 195],–,–,–,–,< 300,< 300,< 300,≤ 1000,–
Cn1c2nc(C(=O)NO)sc2c2cnn(Cc3cccc4[nH]ncc34)c(=O)c21 [Compound 138],301 to 800,< 300,301 to 800,> 1000,–,–,–,–,–
Cc1cccc(Cn2ncc3c4sc(C)nc4n(C)c3c2=O)n1 [Compound 17],< 300,< 300,< 300,≤ 1000,–,–,–,–,–
CSc1nc2c(s1)c1cnn(Cc3ccc(S(N)(=O)=O)cc3)c(=O)c1n2C [Compound 116],> 800,> 800,> 800,–,–,–,–,–,Cell based ATP assay AC50 (wild type PKR [2]): No Fit
